According to PMC11602115 (Journal of Medicinal Chemistry, 2017):
pEC50, pKi: −log10 of the molar value. Like-named read-outs stand apart in the source and are kept apart here.

Key:
human DP1 receptor = biological target: T1, human DP1 receptor (Homo sapiens, UniProt Q13258); test: HTRF cAMP assay, recombinant human DP1 receptor in CHO-K1 cells; format: cell-based; conditions: for Emax: CHO-K1, intrinsic activity relative to 1 μM PGD2, read-out: hDP1 % IA; for pEC50: HTRF (cAMP) human DP1 receptor assay, mean of at least three determinations, read-out: EC50 hDP1; for DP1 % I.A: cAMP HTRF agonist assay (Gs), Table Sup2
T1 construct: expressed in transfected cells
T1 sequence (Q13258 1-359): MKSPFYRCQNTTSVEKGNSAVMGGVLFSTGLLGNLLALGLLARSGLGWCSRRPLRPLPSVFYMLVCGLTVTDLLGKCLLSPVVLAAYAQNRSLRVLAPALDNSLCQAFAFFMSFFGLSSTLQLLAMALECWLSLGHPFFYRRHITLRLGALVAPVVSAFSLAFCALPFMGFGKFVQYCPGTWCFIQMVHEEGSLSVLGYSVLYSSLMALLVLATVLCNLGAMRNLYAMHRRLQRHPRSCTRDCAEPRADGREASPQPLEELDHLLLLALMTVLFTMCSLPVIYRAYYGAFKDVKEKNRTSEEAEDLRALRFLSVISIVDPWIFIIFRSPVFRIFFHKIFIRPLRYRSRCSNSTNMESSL

EP3v6 = biological target: T2, EP3v6 (Homo sapiens, UniProt P43115); test: Melanophore dispersion assay, EP3v6; format: cell-based; set-up: expressed in transfected cells; host or cells: melanophores (transient, electroporation); conditions: for pEC50 / EP3v6 % I.A: melanophore dispersion assay (Gi); for behaviour at EP3 in melanophore platform: potencies similar to binding affinities
T2 sequence (P43115 1-374 isoform P43115-4): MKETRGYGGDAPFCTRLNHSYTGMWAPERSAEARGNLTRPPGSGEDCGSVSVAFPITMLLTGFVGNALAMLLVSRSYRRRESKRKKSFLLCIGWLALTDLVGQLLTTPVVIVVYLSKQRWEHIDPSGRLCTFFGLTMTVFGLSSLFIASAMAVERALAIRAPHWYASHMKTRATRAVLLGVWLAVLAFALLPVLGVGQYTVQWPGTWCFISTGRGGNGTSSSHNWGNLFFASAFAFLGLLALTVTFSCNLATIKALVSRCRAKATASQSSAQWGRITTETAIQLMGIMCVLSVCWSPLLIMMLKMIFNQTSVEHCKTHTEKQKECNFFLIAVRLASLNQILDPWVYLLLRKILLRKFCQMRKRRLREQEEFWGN
Experimental: For the EP3v6 receptor functional assay, melanophores were transfected by electroporation using 20 μg of recombinant human EP3v6 receptor plasmid DNA per 400 μL of cell suspension. Transfected cells were immediately resuspended in fresh growth medium and plated in 384-well clear, polystyrene microplates. Plated cells were incubated at 27 °C for 48 h after transfection in order to achieve optimal receptor expression. To perform the assay, growth medium was removed from the assay plates and replaced with assay buffer (40 μL/well, 0.7× PBS, pH 7.3, supplemented with 20 nM melatonin to induce pigment aggregation). Following a 90 min incubation at room temperature, a 650 nm absorbance reading was collected and test compounds (10 μL per well) were transferred to the assay plates. Plates were incubated for 90 min at room temperature to allow compound-induced pigment redistribution to take place, and final absorbance reading was then collected. Test compounds were solubilized and serially diluted in DMSO, using 5-fold dilutions, to generate a 10-point dose–response curve with a top concentration of 10 μM (final assay concentration). Samples were then further diluted in assay buffer to achieve a 5× stock prior to addition to the assay plates. A SpectraMax absorbance plate reader (Molecular Devices, Inc.) was used for data collection.
Table Sup2: Data with some comparator compounds in functional assays. […]

rat IP = rat IP (Rattus norvegicus, UniProt P43253); test: HTRF cAMP assay, recombinant rat IP receptor; format: cell-based; set-up: expressed in transfected cells; conditions: for pEC50: HTRF (cAMP) rat IP receptor assay, mean of at least three determinations; for Emax: read-out: rIP % IA
Sequence of rat IP (P43253 whole entry): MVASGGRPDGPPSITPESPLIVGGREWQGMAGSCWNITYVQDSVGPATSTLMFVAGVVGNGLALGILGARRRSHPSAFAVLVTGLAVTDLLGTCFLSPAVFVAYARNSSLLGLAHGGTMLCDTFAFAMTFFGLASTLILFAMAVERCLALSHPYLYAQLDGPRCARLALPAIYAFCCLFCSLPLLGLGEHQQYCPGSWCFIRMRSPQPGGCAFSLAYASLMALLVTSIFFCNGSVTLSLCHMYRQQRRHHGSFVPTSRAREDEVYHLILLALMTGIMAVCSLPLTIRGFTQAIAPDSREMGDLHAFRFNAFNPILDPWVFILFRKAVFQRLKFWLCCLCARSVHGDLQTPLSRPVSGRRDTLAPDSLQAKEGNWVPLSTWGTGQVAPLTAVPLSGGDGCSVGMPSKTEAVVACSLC

dog IP = dog IP (Canis lupus familiaris, UniProt A0A8I3MUB8); test: Radioligand binding, dog IP ([3H]-iloprost)
Sequence of dog IP (A0A8I3MUB8 1-381): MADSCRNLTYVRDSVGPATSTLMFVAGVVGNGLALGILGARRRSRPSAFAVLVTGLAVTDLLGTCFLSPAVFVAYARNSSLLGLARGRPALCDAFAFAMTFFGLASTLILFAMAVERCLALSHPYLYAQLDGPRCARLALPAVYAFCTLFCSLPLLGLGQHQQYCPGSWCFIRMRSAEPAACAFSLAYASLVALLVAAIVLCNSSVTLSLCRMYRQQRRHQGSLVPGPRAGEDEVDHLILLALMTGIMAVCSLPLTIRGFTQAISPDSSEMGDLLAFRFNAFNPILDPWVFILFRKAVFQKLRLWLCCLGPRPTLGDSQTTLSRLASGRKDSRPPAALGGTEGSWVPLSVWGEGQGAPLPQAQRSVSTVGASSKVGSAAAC
Experimental: CHO-K1 cells expressing recombinant IP receptors were harvested, washed with ice-cold phosphate buffered saline, pH 7.4 (PBS), and then centrifuged at 48 000g for 20 min at 4 °C. The resulting cell pellet was then resuspended in ice-cold PBS containing 20 mM HEPES, pH 7.4, and 0.1 mM EDTA, homogenized on ice using a Brinkman Polytron, and centrifuged (48 000g for 20 min at 4 °C). This resuspension and centrifugation process was repeated one further time. Crude membrane pellets were stored at −80 °C until used for radioligand binding assays.
Assay incubations were terminated by rapid filtration through PerkinElmer GF/C filtration plates pretreated with 0.3% PEI, under vacuum pressure using a 96-well Packard filtration apparatus, followed by multiple washes with ice-cold wash buffer (PBS containing 20 mM HEPES and 0.1 mM EDTA, pH 7.4). Plates were then dried at 45 °C for a minimum of 2 h. Finally, 25 μL of BetaScint scintillation cocktail was added to each well and plates were counted in a Packard TopCount scintillation counter. In each competition study, test compounds were dosed at 10 concentrations with triplicate determinations at each test concentration. A reference compound, typically iloprost, was included in every runset for quality control purposes.

EP4 = EP4 (Homo sapiens, UniProt P35408); test: cAMP HTRF agonist assay, EP4; format: cell-based; conditions: for agonist activity at EP4: HTRF cAMP functional assay
Sequence of EP4 (P35408 whole entry): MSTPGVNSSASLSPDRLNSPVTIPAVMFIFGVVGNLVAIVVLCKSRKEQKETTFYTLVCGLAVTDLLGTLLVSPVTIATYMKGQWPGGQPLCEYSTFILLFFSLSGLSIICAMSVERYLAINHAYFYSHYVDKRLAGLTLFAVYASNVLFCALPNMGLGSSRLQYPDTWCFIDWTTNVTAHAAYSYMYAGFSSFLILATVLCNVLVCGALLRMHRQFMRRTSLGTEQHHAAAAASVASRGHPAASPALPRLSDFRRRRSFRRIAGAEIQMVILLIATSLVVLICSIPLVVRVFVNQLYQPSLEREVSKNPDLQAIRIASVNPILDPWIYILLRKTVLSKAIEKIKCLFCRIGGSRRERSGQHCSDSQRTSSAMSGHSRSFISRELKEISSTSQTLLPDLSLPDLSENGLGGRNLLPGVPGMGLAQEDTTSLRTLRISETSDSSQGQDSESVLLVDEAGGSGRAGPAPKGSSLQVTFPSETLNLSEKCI
Excerpt: Table Sup2: Data with some comparator compounds in functional assays.
Compound DP1 EP1 EP2 EP3v6 EP4
EC50, µµµµM (% I.A) EC50, µµµµM (% I.A) EC50, µµµµM (% I.A) EC50, µµµµM (% I.A) EC50, µµµµM (% I.A)
n = 3 n = 2 n = 8 n = 6 n = 6 […]

[1] = read-out: Ki dog IP ([3H]-iloprost)

Row | SMILES | Emax (human DP1 receptor) [%] | pEC50 (human DP1 receptor) | DP1 % I.A (human DP1 receptor) [%] | pEC50 (EP3v6) | EP3v6 % I.A (EP3v6) [%] | behaviour at EP3 in melanophore platform (EP3v6) | pEC50 (rat IP) | Emax (rat IP) [%] | pKi (dog IP; [1]) | agonist activity at EP4 (EP4) | pEC50 (EP4; cAMP HTRF agonist assay) | pKi (dog IP) | EP4 % I.A (EP4; cAMP HTRF agonist assay) [%]
1 | O=C(O)COC[C@H]1CC[C@H](COC(=O)N(c2ccccc2)c2ccc(Cl)cc2)CC1 [5c, Sodium 2-(((1r,4r)-4-(((4-Chlorophenyl)(phenyl)carbamoyloxy)methyl)cyclohexyl)methoxy)acetate] | 52 | 6.07 | 52 | 6.64 | 98 | behaved as EP3 agonists | 6.28 | 88 | 6.59 | no significant agonist activity | < 5.00 |  | 
2 | O=C(O)COC[C@H]1CC[C@H](COC(=O)N(c2ccccc2)c2cccc(F)c2)CC1 [5g, 2-(((1r,4r)-4-(((3-Fluorophenyl)(phenyl)carbamoyloxy)methyl)cyclohexyl)methoxy)acetic Acid] | 61 | 5.56 |  |  |  | behaved as EP3 agonists | 6.55 | 83 | 6.74 | no significant agonist activity |  |  | 
3 | CC#CCC(C)[C@H](O)/C=C/[C@@H]1[C@H]2C/C(=C/CCCC(=O)O)C[C@H]2C[C@H]1O (stereo partly shown) [iloprost] | 42 | 6.83 | 42 | 6.55 | 68 |  | 9.16 | 99 |  |  | 6.39 | 8.77 | 96
